Patent US20080200424A1, “Preparation for Treating Cancer” (priority 2004, published 2008)

Legend:
healthy cells = settings: does not attack healthy cells; cited from earlier work
SCC25 = experiment: Efficacy against head and neck tumour cell line SCC25; format: cell-based; settings: substance alone, treatment period of 72 hours (FIG. 1)
From the text: (§1) The biological activity of 7β-hydroxycholesterol and caroverin alone and also combined with each other was investigated. The efficacy was checked using the head and neck tumour cell lines SCC9 and SCC25.

SCC9 = experiment: Efficacy against head and neck tumour cell line SCC9; format: cell-based; settings: substance alone, treatment period of 72 hours (FIG. 1)
From the text: as §1

[1] = system: head and neck tumour cell lines SCC9 and SCC25; experiment: Efficacy on tumour cells, cell line not given (cisplatin combinations, best concentration, proliferation); format: cell-based; settings: combined with cisplatin (FIG. 2, FIG. 5); 7β-hydroxycholesterol in small doses
From the text: as §1

## CC(C)CCC[C@@H](C)[C@H]1CC[C@H]2[C@@H]3[C@@H](O)C=C4C[C@@H](O)CC[C@]4(C)[C@H]3CC[C@]12C [7β-hydroxycholesterol]
Healthy cells
  toxicity: completely non-toxic
SCC25
  efficacy against cell line: effective
SCC9
  efficacy against cell line: effective
[1]
  synergistic effect combined with cisplatin: synergistic effect

## CCN(CC)CCn1c(=O)c(Cc2ccc(OC)cc2)nc2ccccc21 [caroverin, 1-diethylaminoethyl-3-(p-methoxybenzyl)-1,2-dihydro-quinoxalin-2-one, reference compound]
[1]
  synergistic effect combined with cisplatin: could not be proved
